# Measured values published in PubChem BioAssay AID540271 (Broad Institute, 2011).
# Activity calls are given as the source filed them. The rule behind the calls is not given here.
# Test system: S. cerevisiae expressing PfHSP40, growth rescue, plate reader
# Assay: S cerevisiae expressing PfHSP40, growth rescue, cherry pick dose confirmatory, plate reader (AID 540271);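 note: yeast growth read after three days of incubation at 30 °C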
row,Structure (SMILES),AC50
1,Cc1ccc(-n2nnnc2C(Cl)c2nnnn2-c2ccc(C)cc2)cc1,3.4 µM
2,O=C1CC(N2CCCCCC2)C(=O)N1c1ccc2c(c1)OCO2 (centres undefined),4.18 µM
3,O=c1c(O)c(-c2ccccc2)oc2ccccc12,5.37 µM
4,CCCOc1ccc2ccccc2c1/C=C1\SC(=O)NC1=O,5.65 µM
5,COc1ccc2cnn(CCOc3cc(C)ccc3C(C)C)c(=O)c2c1OC,5.9 µM
6,Nc1[nH]c(=O)ncc1F,1.51 µM
7,O=C(CC1(O)C(=O)Nc2cc(Cl)cc(Cl)c21)c1ccncc1 (centres undefined),> 12 µM (inactive)
8,CCC(=O)NC(c1ccco1)c1cc(Cl)c2cccnc2c1O (centres undefined),2.99 µM
9,CN(C(=O)COC(=O)c1ccc([N+](=O)[O-])cc1Cl)C1CCCCC1,9.99 µM
10,O=C(N[C@@H](Cc1ccccc1)C(=O)CCl)OCc1ccccc1,2.19 µM
11,Oc1c(Cl)c(Cl)c(Cl)c(Cl)c1Cl,2.89 µM
12,COc1ccc(N=N/C(=C\O)C(=O)c2cccs2)cc1,7.25 µM
13,COc1cccc(NC=C2C(=O)OC3(CCCCC3)OC2=O)c1,9.91 µM
14,CCn1nc(/C=C/c2ccccc2)nc2c(=O)n(C)c(=O)nc1-2,2.36 µM
15,Cc1onc(-c2ccccc2)c1C(=O)NC(=S)NNC(=O)c1cc(-c2ccc(F)cc2)n[nH]1,> 4.2 µM (inactive)
16,COc1ccc(C2=CC(=O)C[C@H](c3ccc4c(c3)OCO4)C2)cc1,6.93 µM
17,C[C@@]12CCC3[C@@](CCC4[C@@]3(C)CCC[C@@]4(C)C(=O)NCc3ccccc3)(CC1=O)C2 (some centres undefined),1.43 µM
18,CC1CCc2c(C(=O)Nc3ccccn3)csc2C1 (centres undefined),9.29 µM
19,CC(C)(CN1CCc2ccccc2C1)NS(=O)(=O)c1ccc(Cl)cc1,11 µM
20,O/N=C/c1cc(Br)ccc1OCc1ccccc1F,4.76 µM

row,Structure (SMILES),AC50
1,O=Nc1c(O)n(Cc2ccc(Cl)c(Cl)c2)c2ccccc12,6.59 µM
2,CCC(C)c1ccc(NC(=S)NCCn2cc(Br)cn2)cc1 (centres undefined),10.1 µM
3,CCc1nc2ccccc2c(=O)n1NC(=O)c1c(O)c2ccccc2n(CC)c1=O,5.74 µM
4,O=C1Nc2c(Br)cccc2C1=O,11.6 µM
5,CC12CCC(O)CC1=CCC1C2CCC2(C)C3=NN=CC3CC12 (centres undefined),11.4 µM
6,COc1ccc2c(c1)[C@H]1[C@H](CO2)[C@H](c2ccccc2)[C@]2(C)C(=O)Nc3ccc(Cl)cc3C(=O)N12,> 12 µM (inactive)
7,O=[N+]([O-])c1ccc(S(=O)Cc2ccccc2)c([N+](=O)[O-])c1 (centres undefined),1.75 µM
8,CN(Cc1ccc(Cl)s1)C(=O)CCl,6.37 µM
9,COc1ccc(C(=O)NC(=S)NNC(=O)CCc2ccccc2)cc1,5.29 µM
10,CCC(Oc1ccccc1)C(=O)Nc1ncc([N+](=O)[O-])s1 (centres undefined),6.83 µM
11,Oc1ccc(-c2nc3ccccc3s2)c(O)c1,7.43 µM
12,CC1(C)C=Cc2c(ccc3c2OC[C@@H](c2ccc(O)cc2O)C3)O1,5.69 µM
13,CCCCCCCN1N=C(C)C(C(=O)c2ccccc2)C1=O (centres undefined),3.73 µM
14,Cc1c(C(=O)NCCSCc2cccc(C(F)(F)F)c2)cnn1-c1ccc(Cl)cc1,6.1 µM
15,Cc1nn2c(-c3ccncc3)nnc2c2ccccc12,7.28 µM
16,Clc1ccccc1CN(Cc1ccco1)Cc1nnnn1C1CCCC1,5.17 µM
17,CC(C)CSc1n[nH]c(=S)s1,6.48 µM
18,Cc1nnc(N/N=C/c2cccc(OCc3ccc(Cl)c(Cl)c3)c2)n1N,> 12 µM (inactive)
19,Cc1oc2c(c1C(=O)c1ccccc1)C(=O)C(=O)c1ccccc1-2,5.65 µM
20,Cc1cc(Cl)ccc1C(=O)C1CCCN(C(=O)c2cncs2)C1 (centres undefined),4.83 µM

row,Structure (SMILES),AC50
1,N/C(Cc1ccc(Cl)cc1Cl)=N\OC(=O)c1ccccc1F,5.93 µM
2,Cc1cc(NS(=O)(=O)c2ccc(C3CCCCC3)cc2)no1,5.38 µM
3,O=c1c2ccccc2nc(-c2ccc(-c3ccccc3)cc2)n1-c1ccncc1,6.21 µM
4,O=C1c2cc(F)ccc2-n2c1nc1ccccc1c2=O,0.927 µM
5,Fc1ccc(CCNC(=S)Nc2ccc(F)c(Cl)c2)cc1,7.64 µM
6,COc1ccccc1CNC(=O)CSc1ccc(-c2ccccn2)nn1,5.89 µM
7,O=C1C(Nc2ccccc2)=C/C(=N/S(=O)(=O)c2cccs2)c2ccccc21,3.48 µM
8,O=C(CSc1ccc(-c2ccccn2)nn1)N1CCCc2ccccc21,3.52 µM
9,CC(C)(C)C(O)C(Cc1ccccc1Cl)n1cncn1 (centres undefined),0.215 µM
10,Clc1ccc(C(Cn2ccnc2)OCc2c(Cl)cccc2Cl)c(Cl)c1 (centres undefined),0.241 µM
11,O=C(COC(=O)c1ccc([N+](=O)[O-])o1)NC12CC3CC(CC(C3)C1)C2,> 12 µM (inactive)
12,S=C(Nc1ccc(Oc2ccccc2)cc1)NC1CCCCCC1,6.93 µM
13,C=CCNC(=S)N1CCC(Cc2ccccc2)CC1,11.3 µM
14,CCN(CC)c1ccc(/C=C/c2ccc3ccc(OC)cc3[n+]2CC)cc1,5.78 µM
15,c1ccc(C(=NNc2nc3ccccc3s2)c2ccccn2)cc1,2.52 µM
16,O=C1CC(O)(C(F)(F)F)Oc2c1ccc1ccccc21 (centres undefined),5.78 µM
17,COc1ccc(-c2cc(C(=O)NNC(=S)NC(=O)c3c(-c4ccccc4)noc3C)[nH]n2)cc1,2.69 µM
18,CCCCCCCn1c(=O)c(C(=O)OC)c(N)c2ccccc21,4.64 µM
19,COc1ccc(OC)c(-c2c3cc(O)c(=O)cc-3oc3cc(O)c(O)cc23)c1,3.79 µM
